Measured values as given in ChEMBL document CHEMBL1156557, “Structure and biosynthesis of norneolambertellin produced by Lambertella sp. 1346” (Bioorg Med Chem Lett, 2008).
The source made the active and inactive calls. The calls are words filed in the database; no cut-off is given here.

Legend:
Monilinia fructigena = assay: Antifungal activity against Monilinia fructigena; assay type: functional, organism-based
Bipolaris oryzae = assay: Antifungal activity against Cochliobolus miyabeanus at 50 ug/ml; assay type: functional, organism-based

Cc1cc2c(=O)oc3c(O)cccc3c2oc1=O
Activity (Monilinia fructigena): inactive
Activity (Bipolaris oryzae): Active
